Values quoted from earlier work in patent publication US20150087671A1, “LOW BURST SUSTAINED RELEASE LIPOPHILIC AND BIOLOGIC AGENT COMPOSITIONS” (Micell Technologies, Inc., priority 2012, published 2015).
Values belong to the compound of their own block, whether it stands above or below them.

Key:
[1] = system: phosphorylation of AKT T308
mTOR = mTOR (Homo sapiens, UniProt P42345)
PI3K/mTOR = conditions: read-out: IC50, dual PI3K/mTOR inhibitor (target not specified further)

IC50 [1]: 7.5 nM
SMILES: COc1ccc(-c2cc3c(C)nc(N)nc3n([C@H]3CC[C@H](OCCO)CC3)c2=O)cn1 [PF-04691502]

IC50 (mTOR): 9 nM
SMILES: c1cncc(CN2CCC(n3ncc4c(N5CCOCC5)nc(-c5ccc6[nH]ccc6c5)nc43)CC2)c1 [WAY-600]

bioavailability (Rapamune oral tablets or solution): < 14% | blood concentrations (once daily oral dosing, immunosuppressive dose 2 or 5 mg daily): 6 to 50 ng/mL
SMILES: CO[C@H]1C[C@@H]2CC[C@@H](C)[C@@](O)(O2)C(=O)C(=O)N2CCCC[C@H]2C(=O)O[C@H]([C@H](C)C[C@@H]2CC[C@@H](O)[C@H](OC)C2)CC(=O)[C@H](C)/C=C(\C)[C@@H](O)[C@@H](OC)C(=O)[C@H](C)C[C@H](C)/C=C/C=C/C=C/1C [Rapamycin, rapamycin]

IC50 (mTOR): 0.19 nM
SMILES: CNC(=O)Nc1ccc(-c2nc(N3CC4CCC(C3)O4)c3cnn(C4CCC5(CC4)OCCO5)c3n2)cc1 [WYE-125132]

IC50 (mTOR): 5 nM
SMILES: COC(=O)Nc1ccc(-c2nc(N3CCOCC3)c3cnn(C4CCN(C(=O)OC)CC4)c3n2)cc1 [WYE-354]

Second part, the compound before the results:

SMILES: COc1ccc(COc2cc3oc(=O)c4cc(C(C)O)ccc4c3cc2OC)cc1 (stereo not shown) [Palomid 529]
GI50 (NCI-60 cell lines panel): < 35000 nM

SMILES: Nc1ncnc2c1c(-c1cnc3[nH]ccc3c1)nn2C1CCCC1 [PP121]
IC50 (PDGFR): 2 nM

SMILES: COc1ccc(-c2ccc3ncc4c(c3c2)n(-c2ccc(N3CCNCC3)c(C(F)(F)F)c2)c(=O)n4C)cn1 [NVP-BGT226]
IC50 (PI3K/mTOR): 1 nM

SMILES: CO[C@H]1C[C@@H]2CC[C@@H](C)[C@@](O)(O2)C(=O)C(=O)N2CCCC[C@H]2C(=O)O[C@H]([C@H](C)C[C@@H]2CC[C@@H](OCCO)[C@H](OC)C2)CC(=O)[C@H](C)/C=C(\C)[C@@H](O)[C@@H](OC)C(=O)[C@H](C)C[C@H](C)/C=C/C=C/C=C/1C [Everolimus, 40-O-(2-Hydroxyethyl)rapamycin]
IC50 (mTOR): 0.63 nM
